What was measured:
Assay in all cases: Real-time RT-PCR in PMCs from dialysed rats
Assay type in all cases: in vivo, rat
[1] = system: BAX; settings: peritoneal cells from rats dialysed four weeks, aliskiren 0.1 or 1 mg/Kg, FIG. 15
Procedure: (§1) The rats were exposed daily for four weeks to carrier (saline serum), 1.5% PDF, 2.3% PDF or 4.5% PDF supplemented by carrier, 0.1 mg/Kg aliskiren or 1 mg/Kg aliskiren. The data is expressed as mean±SEM, n=6 rats per group. * p<0.05, compared to the group treated with carrier in the absence of aliskiren (carrier). # p<0.05, compared to their respective groups treated with PDFs in the absence of aliskiren.
(§2) For in vivo studies, 78 female rats of the Sprague-Dawley female strain weighing 200-240 g (Charles River Breeding Laboratories) were used: fifty-four rats were assigned to the group of animals which had been administered high-glucose peritoneal dialysis solutions (PDF), which were divided into three different subgroups with eighteen rats each which were administered, respectively, three PDFs having different glucose concentrations (Fresenius Medical Car, Bad Homburg, Germany). Additionally, eighteen rats were administered a carrier (saline serum) and another six rats were used as a control group (not dialysed). […]
(§3) At the end of the experimental period (four weeks), 30 ml of a commercial PDF with 2.3% glucose (Fresenius Medical Car, Bad Homburg, Germany) was administered intraperitoneally using a 22G needle. […] Their body weight was measured at the start and end of the experimental period. […]
(§4) The blood and dialysate samples were centrifuged and stored at −20° C. The concentrations of creatinine and glucose in the serum and dialysate were measured using enzymatic methods. The peritoneal transport of solutes was calculated, on one hand, as the glucose concentration in the dialysate 2 hours after the PET relative to the initial glucose concentration in the PDF (D2/D0 glucose) and, on the other, as the dialysate/plasma creatinine concentration ratio (D2/P2 creatinine) 2 h after the PET. […]
(§5) The RNA expression was evaluated by real-time RT-PCR in PMCs. […] RNA quality and concentration was evaluated by spectrophotometry (Infinite 200, Tecan, Salzburg, Austria) using 1 μl of the RNA sample. […]

[2] = system: Bcl-2; settings: peritoneal cells from rats dialysed four weeks, aliskiren 0.1 or 1 mg/Kg, FIG. 16
Procedure: as §1, §2, §3, §4, §5

[3] = system: Collagen III; settings: peritoneal cells from rats dialysed four weeks, aliskiren 0.1 or 1 mg/Kg, FIG. 18
Procedure: as §1, §2, §3, §4, §5

[4] = system: p53; settings: peritoneal cells from rats dialysed four weeks, aliskiren 0.1 or 1 mg/Kg, FIG. 14
Procedure: as §1, with “PDF supplemented by, 0.1 mg/Kg” for “PDF supplemented by carrier, 0.1 mg/Kg”, “of aliskiren. […]” for “of aliskiren.”
as §3, §4, §5

COCCCOc1cc(C[C@@H](C[C@H](N)[C@@H](O)C[C@H](C(=O)NCC(C)(C)C(N)=O)C(C)C)C(C)C)ccc1OC [aliskiren]
RNAm expression of pro-apoptotic protein Bax [1]: reduced | RNAm expression of anti-apoptotic protein Bcl-2 [2]: increased | RNAm expression of collagen III [3]: increased | RNAm expression of pro-apoptotic protein p53 [4]: reduced

From patent US20130065964A1, “PERITONEAL DIALYSIS SOLUTION” (UNIVERSIDAD DE CASTILLA LA MANCHA, priority 2010, published 2013)
